Experimental data: US12329786B2, “Regulate gut microbiota to treat neurodegenerative disorders” (California Institute of Technology, priority 2016, dated 2025)

Molecular target: T1, human αSyn (Homo sapiens, UniProt P37840)
T1 construct: made in house
Assay: In vitro αSyn aggregation kinetics by ThT fluorescence
Format: biochemical
Conditions: range of concentrations, singly or in mixtures
Protocol: The ThT fluorescence signal was recorded using a microplate reader (Fluostar OPTIMA Microplate reader, BMG Labtech) with the excitation filter of 440±10 nm and an emission filter of 490±10 nm under intermittent shaking conditions at 37 °C. The kinetic curves were normalized to the fluorescence maxima and the time to reach half-maximum intensity quantified. For atomic force microscopy (AFM) imaging, samples were diluted with ultrapure water to […] total protein concentration, and […] were pipetted onto freshly cleaved mica and left to dry. The samples were imaged with a Modular scanning probe microscope NTEGRA Prima (NT-MDT) in intermittent contact mode in air using a gold-coated single crystal silicon cantilever (spring constant of ˜5.1 N/m) with a resonance frequency of ˜150 kHz. AFM images were processed with Gwyddion open source software.

| Compound | αSyn aggregation kinetics (ThT fluorescence, time to half-max) |
| --- | --- |
| CC(=O)[O-].[Na+] [sodium acetate] | did not expedite the aggregation of human αSyn in vitro |
| CCCC(=O)[O-].[Na+] [sodium butyrate] | did not expedite the aggregation of human αSyn in vitro |
| CCC(=O)[O-].[Na+] [sodium propionate] | did not expedite the aggregation of human αSyn in vitro |
